Measured values published in patent US20100016366A1, “Novel Compounds Active as Muscarinic Receptor Antagonists” (priority 2008, published 2010).
pKi: −log10 of the molar value.

Legend:
[1] = target: T1, human muscarinic M3 receptor (Homo sapiens, UniProt P20309); experiment: Cell based potency assessment, hM3 β-lactamase assay (CHO cell β-lactamase); conditions: CHO cells recombinantly expressing human M3, NFAT-β-lactamase reporter; inhibition of 80 nM carbamyl choline signal, 4 h; IC50 converted by Cheng-Prusoff
T1 construct: expressed in transfected cells; host or cells: CHO (CHO-K1) cells
T1 sequence (P20309 whole entry): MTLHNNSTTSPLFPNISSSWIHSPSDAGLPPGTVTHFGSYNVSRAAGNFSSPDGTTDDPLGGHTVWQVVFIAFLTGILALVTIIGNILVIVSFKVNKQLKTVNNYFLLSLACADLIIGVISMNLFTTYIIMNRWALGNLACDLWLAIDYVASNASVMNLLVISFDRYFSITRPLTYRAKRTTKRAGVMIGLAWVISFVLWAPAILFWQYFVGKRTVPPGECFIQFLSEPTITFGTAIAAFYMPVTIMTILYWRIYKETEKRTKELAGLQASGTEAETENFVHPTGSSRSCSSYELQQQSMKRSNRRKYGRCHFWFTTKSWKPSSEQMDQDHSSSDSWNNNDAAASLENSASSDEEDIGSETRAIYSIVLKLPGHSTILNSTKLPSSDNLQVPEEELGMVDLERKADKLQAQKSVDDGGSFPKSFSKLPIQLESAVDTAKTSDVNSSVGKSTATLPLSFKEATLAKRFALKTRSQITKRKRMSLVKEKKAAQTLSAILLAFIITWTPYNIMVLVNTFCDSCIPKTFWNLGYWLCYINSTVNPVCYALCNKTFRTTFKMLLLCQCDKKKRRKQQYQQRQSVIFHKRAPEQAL
Procedure: Cell BASED POTENCY ASSESSMENT at the Human Recombinant M3 Muscarinic Receptor
M3 potency was determined in CHO-K1 cells transfected with the NFAT-Betalactamase gene. CHO (Chinese Hamster Ovary) cells recombinantly expressing the human muscarinic M3 receptor were transfected with the NFAT_β-Lac_Zeo plasmid. Cells were grown in DMEM with Glutamax-1, supplemented with 25 mM HEPES (Life Technologies 32430-027), containing 10% FCS (Foetal Calf Serum; Sigma F-7524), […] Sodium pyruvate (Sigma S-8636), NEAA (non-Essential Amino Acids; Invitrogen 11140-035) and 200 μg/ml Zeocin (Invitrogen R250-01).
hM3 β-Lactamase Assay Protocol
Cells were harvested for assay when they reached 80-90% confluency using enzyme free cell Dissociation Solution (Life technologies 13151-014) incubated with the cells for 5 min at 37° C. in an atmosphere containing 5% CO2. Detached cells were collected in warmed growth media and centrifuged at 2000 rpm for 10 min, washed in PBS (Phosphate Buffered Saline; Life Technologies 14190-094) and centrifuged again as just described. The cells were re-suspended at 2×10^5 cells/ml in growth medium (composition as described above). 20 μl of this cell suspension was added to each well of a 384 well black clear bottomed plate (Greiner Bio One 781091-PFI). The assay buffer used was PBS supplemented with 0.05% Pluronic F-127 (Sigma 9003-11-6) and 2.5% DMSO. Muscarinic M3 receptor signalling was stimulated using 80 nM carbamyl choline (Aldrich N240-9) incubated with the cells for 4 h at 37° C./5% CO2 and monitored at the end of the incubation period using a Tecan SpectraFluor+plate reader (λ−excitation 405 nm, emission 450 nm and 503 nm). M3 receptor antagonists under test were added to the assay at the beginning of the 4 h incubation period and compound activity measured as the concentration dependent inhibition of the carbamyl choline induced signal. Inhibition curves were plotted and IC50 values generated using a 4-parameter sigmoid fit and converted to Ki values using the Cheng-Prusoff correction and the KD value for carbamyl choline in the assay.

[2] = target: T1, human muscarinic M3 receptor; experiment: hM3 competition binding assay (3H-NMS, CHO cell membranes); conditions: CHO cell membranes expressing human M3; 3H-NMS at 5×KD, 24 hr at RT; IC50 corrected by Cheng-Prussoff
Procedure: Binding Affinity Assessment at the Human Recombinant M3 Muscarinic Receptor
Cell Pellets from CHO (Chinese Hamster Ovary) cells recombinantly expressing the human muscarinic M3 receptor were homogenised in 20 mM HEPES (pH7.4) and centrifuged at 48000×g for 20 min at 4° C. The pellet was re-suspended in buffer and the homogenisation and centrifugation steps repeated. The resulting pellet was re-suspended in 1 ml buffer per 1 ml original packed cell volume and the homogenisation step repeated. Protein estimation was carried out on the suspension and 1 ml aliquots of ˜1 mg/ml frozen at −80° C.
hM3 Competition Binding Assay Protocol
Membranes (5 µg/well) were incubated with ^3H-NMS (at a concentration 5×KD) plus/minus test compound for 24 hr at RT (room temperature) in a 1 ml polystyrene 96-well deep well block. The final assay volume was 200 µl, comprising of: 20 µl plus/minus test compound; 20 µl ^3H-NMS (Perkin Elmer NEN 636) and 160 µl membrane solution. Total Binding was defined with 0.1% DMSO; Non-Specific Binding was defined with 1 µM Atropine. Assay buffer was 20 mM Hepes (pH 7.4).
Once all assay components were added, plates were covered and incubated at room temperature for 24 hrs with shaking. The assay was terminated by rapidly filtering through GF/B Unifilter plates pre-soaked with 0.5% polyethylenimine, using a Packard filtermate harvester, the filter plate was then washed with 3×1 ml 4° C. assay buffer. The filter plates were dried at 45° C. for 1 hour. The bottoms of the filter plates were sealed and 50 µl/well of Microscint ‘0’ added, the top of the plates were sealed with a Topseal. Following 90 mins, the plates were read on an NXT Topcount (1 minute read time per well).
The resulting data was expressed as a percentage of the specific binding (Specific binding=Total binding−Non-Specific Binding). % specific binding versus test compound concentration was plotted to determine an IC50 from a sigmoid curve using an in-house data analysis programme. IC50 values corrected to Ki values by applying the Cheng-Prussoff equation: […]
where IC50 is the concentration of unlabelled drug which inhibits by 50% the specific radioligand binding. [L] is the free radioligand concentrations and KD and Ki are the equilibrium dissociation constants of the radioligand and unlabelled drug respectively.

Structure (SMILES) | pKi [1] | pKi [2]
O=C(Nc1ccccc1-c1ccccc1)OC1CCN(CCCCCCCCCNC(=O)c2ccc(O)c(Cl)c2)CC1 [Example 1, Biphenyl-2-yl-carbamic acid 1-[9-(3-chloro-4-hydroxy-benzoylamino)-nonyl]-piperidin-4-yl ester] | 10.16 | 8.80
O=C(Nc1ccccc1-c1ccccc1)OC1CCN(CCCCCCCCCNCc2cccc(O)c2F)CC1 [Example 2, Biphenyl-2-yl-carbamic acid 1-[9-(2-fluoro-3-hydroxy-benzylamino)-nonyl]-piperidin-4-yl ester] | 9.08 | 8.98
O=C(Nc1ccccc1-c1ccccc1)OC1CCN(CCCCCCCCCNCc2cc(F)cc(Cl)c2O)CC1 [Example 3, Biphenyl-2-yl-carbamic acid 1-[9-(3-chloro-5-fluoro-2-hydroxy-benzylamino)-nonyl]-piperidin-4-yl ester] | 9.11 | 8.63
O=C(Cc1ccc(O)c(Cl)c1)NCCCCCCCCCN1CCC(OC(=O)Nc2ccccc2-c2ccccc2)CC1 [Example 4, Biphenyl-2-yl-carbamic acid 1-{9-[2-(3-chloro-4-hydroxy-phenyl)-acetylamino]-nonyl}-piperidin-4-yl ester] | 10.38 | 8.92
O=C(Nc1ccccc1-c1ccccc1)OC1CCN(CCCCCCCCCNCc2cccc(O)c2Cl)CC1 [Example 5, Biphenyl-2-yl-carbamic acid 1-[9-(2-chloro-3-hydroxy-benzylamino)-nonyl]-piperidin-4-yl ester] | 9.05 | 9.28
O=C(Nc1ccccc1-c1ccccc1)OC1CCN(CCCCCCCCCNC(=O)c2ccc(O)c(F)c2)CC1 [Example 6, Biphenyl-2-yl-carbamic acid 1-[9-(3-fluoro-4-hydroxy-benzoylamino)-nonyl]-piperidin-4-yl ester] | 9.65 | 9.11
O=C(Nc1ccccc1-c1ccccc1)OC1CCN(CCCCCCCCCNC(=O)c2ccc(F)c(O)c2)CC1 [Example 7, Biphenyl-2-yl-carbamic acid 1-[9-(4-fluoro-3-hydroxy-benzoylamino)-nonyl]-piperidin-4-yl ester] | 8.87 | 9.00
O=C(Nc1ccccc1-c1ccccc1)OC1CCN(CCCCCCCCCNC(=O)c2cccc(F)c2O)CC1 [Example 8, Biphenyl-2-yl-carbamic acid 1-[9-(3-fluoro-2-hydroxy-benzoylamino)-nonyl]-piperidin-4-yl ester] | 8.57 | 8.32
O=C(Nc1ccccc1-c1ccccc1)OC1CCN(CCCCCCCCCNC(=O)c2cc(F)ccc2O)CC1 [Example 9, Biphenyl-2-yl-carbamic acid 1-[9-(5-fluoro-2-hydroxy-benzoylamino)-nonyl]-piperidin-4-yl ester] | 8.06 | –
O=C(Cc1ccc(O)c(F)c1)NCCCCCCCCCN1CCC(OC(=O)Nc2ccccc2-c2ccccc2)CC1 [Example 10, Biphenyl-2-yl-carbamic acid 1-{9-[2-(3-fluoro-4-hydroxy-phenyl)-acetylamino]-nonyl}-piperidin-4-yl ester] | 9.10 | 8.97
O=C(Nc1ccccc1-c1ccccc1)OC1CCN(CCCCCCCCCNC(=O)c2cccc(Cl)c2O)CC1 [Example 11, Biphenyl-2-yl-carbamic acid 1-[9-(3-chloro-2-hydroxy-benzoylamino)-nonyl]-piperidin-4-yl ester] | 8.09 | 8.65
O=C(Nc1ccccc1-c1ccccc1)OC1CCN(CCCCCCCCCNC(=O)c2ccc(F)c(F)c2O)CC1 [Example 12, Biphenyl-2-yl-carbamic acid 1-[9-(3,4-difluoro-2-hydroxy-benzoylamino)-nonyl]-piperidin-4-yl ester] | 8.14 | –
O=C(Nc1ccccc1-c1ccccc1)OC1CCN(CCCCCCCCCNC(=O)c2cc(Cl)cc(Cl)c2O)CC1 [Example 13, Biphenyl-2-yl-carbamic acid 1-[9-(3,5-dichloro-2-hydroxy-benzoylamino)-nonyl]-piperidin-4-yl ester] | 7.74 | –
O=C(Nc1ccccc1-c1ccccc1)OC1CCN(CCCCCCCCCNC(=O)c2ccc(Cl)cc2O)CC1 [Example 14, Biphenyl-2-yl-carbamic acid 1-[9-(4-chloro-2-hydroxy-benzoylamino)-nonyl]-piperidin-4-yl ester] | 7.86 | –
O=C(Nc1ccccc1-c1ccccc1)OC1CCN(CCCCCCCCCNC(=O)c2cc(Cl)ccc2O)CC1 [Example 24, Biphenyl-2-yl-carbamic acid 1-[9-(2-hydroxy-5-chloro-benzoylamino)-nonyl]-piperidin-4-yl ester] | 7.77 | –
O=C(Nc1ccccc1-c1ccccc1)OC1CCN(CCCCCCCCCNC(=O)c2ccc(F)cc2O)CC1 [Example 26, Biphenyl-2-yl-carbamic acid 1-[9-(2-hydroxy-4-fluoro-benzoylamino)-nonyl]-piperidin-4-yl ester] | 8.35 | –
CN(CCCCCCCCCN1CCC(OC(=O)Nc2ccccc2-c2ccccc2)CC1)C(=O)c1ccc(O)cc1F [Example 63, Biphenyl-2-yl-carbamic acid 1-{9-[(2-fluoro-4-hydroxy-benzoyl)-methyl-amino]-nonyl}-piperidin-4-yl ester] | – | 8.95
CN(CCCCCCCCCN1CCC(OC(=O)Nc2ccccc2-c2ccccc2)CC1)C(=O)c1ccc(O)c(F)c1F [Example 64, Biphenyl-2-yl-carbamic acid 1-{9-[(2,3-difluoro-4-hydroxy-benzoyl)-methyl-amino]-nonyl}-piperidin-4-yl ester] | – | 8.70
CN(CCCCCCCCCN1CCC(OC(=O)Nc2ccccc2-c2ccccc2)CC1)C(=O)c1ccc(O)cc1Cl [Example 65, Biphenyl-2-yl-carbamic acid 1-{9-[(2-chloro-4-hydroxy-benzoyl)-methyl-amino]-nonyl}-piperidin-4-yl ester] | – | 9.20
CN(CCCCCCCCCN1CCC(OC(=O)Nc2ccccc2-c2ccccc2)CC1)C(=O)Cc1cccc(O)c1 [Example 66, Biphenyl-2-yl-carbamic acid 1-(9-{[2-(3-hydroxy-phenyl)-acetyl]-methyl-amino}-nonyl)-piperidin-4-yl ester] | – | 9.53
CN(CCCCCCCCCN1CCC(OC(=O)Nc2ccccc2-c2ccccc2)CC1)C(=O)c1cc(F)ccc1O [Example 67, Biphenyl-2-yl-carbamic acid 1-{9-[(5-fluoro-2-hydroxy-benzoyl)-methyl-amino]-nonyl}-piperidin-4-yl ester] | – | 9.08
CN(CCCCCCCCCN1CCC(OC(=O)Nc2ccccc2-c2ccccc2)CC1)C(=O)c1cc(Cl)ccc1O [Example 68, Biphenyl-2-yl-carbamic acid 1-{9-[(5-chloro-2-hydroxy-benzoyl)-methyl-amino]-nonyl}-piperidin-4-yl ester] | – | 8.64
CN(CCCCCCCCCN1CCC(OC(=O)Nc2ccccc2-c2ccccc2)CC1)C(=O)c1ccc(O)c(F)c1 [Example 69, Biphenyl-2-yl-carbamic acid 1-{9-[(3-fluoro-4-hydroxy-benzoyl)-methyl-amino]-nonyl}-piperidin-4-yl ester] | – | 9.21
